Experiments:
[1] = system: COS7 cells; test: Survival rate of COS7 cells (MTT), ketone donors alone or with cisplatin; type: cell-based; conditions: 1 mM ketone donor added with cisplatin, versus untreated group
Procedure: (§1) COS7 cells, that are a renal cytoblastoma, were used. Subconfluent cells were spread on 24-well plates at a density of 40,000 cells/cm^2 and cultured in Dulbecco's Modified Eagle Medium (D-MEM) containing 10% of inactivated fetal bovine serum for one hour. Various concentrations of ketone bodies (HB) and ketone ester (KE) were added to the culture medium of COS7 cells and cultured for 24 hours. After 24 hours of culturing, the culture medium was removed, and COS7 cells were cultured for two hours in PBS with 1 mg/ml of a chromogenic reagent 3-(4,5-dimethylthiazol-2-yl)-2,5-diphenyl tetrazolium bromide (MTT, Wako Pure Chemical Corporation).
(§2) After the culturing, cell lysis solution (50% formamide, 20% sodium dodecyl sulfate) was added and left for 24 hours. Thereafter, the absorbance at 540 nm was measured using an absorbance measurement device (Biorad microplate reader), and the measured absorbance was used to calculate survival rates of COS7 cells.

[2] = system: Hela cells; test: Survival rate of Hela cells (MTT), ketone donors alone or with cisplatin; type: cell-based; conditions: 1 mM ketone donor with 0.3-3 μM of cisplatin, versus untreated group
Procedure: as §1, §2

[3] = cited from earlier work
[4] = in vivo; cited from earlier work
[5] = Ketone body concentration in the blood after a single ingestion in yogurt; type: in vivo; conditions: humans, 500 mg/kg of body weight in yogurt (200 g)
Procedure: PHB was extracted from OITC1261 by the method for purifying the powdered PHB shown in Example 2 (purity: 90%, weight-average molecular weight: 590,000). Ketone ester and PHB whose amounts were adjusted such that the intake thereof was 500 mg/kg of body weight were mixed uniformly in yogurt (200 g) and fed to humans. The ketone body concentration in the blood was measured using a ketone body value electrode (FS Precision ketone measurement electrode) of Precision Exceed (Abbott) every other hour. After ketone bodies were confirmed to be stable, plain yogurt was ingested.
The horizontal axis of the graph in FIG. 8 represents time. The vertical axis represents the ketone body concentration in the blood. Squares represent changes in the ketone body concentration in the blood over time in a group that ingested plain yogurt mixed with ketone ester. […]
The powdered PHB and ketone bodies whose amounts were adjusted such that the intake thereof was 500 mg, 300 mg, 100 mg, or 0 mg/kg of body weight were mixed uniformly in yogurt (200 g) and fed to humans. […] The ketone body concentration in the blood over time was measured using a ketone body value electrode (FS Precision ketone measurement electrode) of Precision Exceed (Abbott) every other hour. […]

In the case of `C[C@@H](O)CC(=O)O` [ketone bodies, (R)-3-β-hydroxybutyric acid], the “adjuvant effect on toxicity caused by cisplatin” value [1] is listed as “significantly promoted the toxic effect caused by cisplatin”, the “adjuvant effect on toxicity caused by cisplatin” value [2] is listed as “significantly promoted the toxic effects due to cisplatin” and the “time in which ketone body concentration in the blood increases after ingestion” value ([3]; ketone bodies ingested) is listed as “within a few minutes”. The “share of ketone bodies transferred to the brain” value [4] was 20-30%.
In the case of `C[C@@H](O)CCOC(=O)C[C@@H](C)O` [ketone ester, 3-hydroxybutyl-3-hydroxybutyric acid], the “time after ingestion at which ketone body concentration in the blood returns to the original level” value [5] is given as “about five” and the “increase of the ketone body concentration in the blood” value ([3]; ketone ester ingested) is given as “several mM in a few minutes”.
